Results from ChEMBL document CHEMBL5113453, “Design, synthesis, and biological evaluation of a new series of pyrazole derivatives: Discovery of potent and selective JNK3 kinase inhibitors” (Bioorg Med Chem, 2022).
pIC50: −log10 of the molar value.

How the values were obtained:
CCRF-CEM = experiment: Antiproliferative activity against human CCRF-CEM cells measured after 48 hrs by SRB assay; assay type: functional, cell-based
K562 = experiment: Antiproliferative activity against human K562 cells measured after 48 hrs by SRB assay; assay type: functional, cell-based
MOLT-4 = experiment: Antiproliferative activity against human MOLT-4 cells measured after 48 hrs by SRB assay; assay type: functional, cell-based
RPMI-8226 = experiment: Antiproliferative activity against human RPMI-8226 cells measured after 48 hrs by SRB assay; assay type: functional, cell-based
SR = experiment: Antiproliferative activity against human SR cells measured after 48 hrs by SRB assay; assay type: functional, cell-based
A549 = experiment: Antiproliferative activity against human A549 cells measured after 48 hrs by SRB assay; assay type: functional, cell-based
HOP-62 = experiment: Antiproliferative activity against human HOP-62 cells measured after 48 hrs by SRB assay; assay type: functional, cell-based
HOP-92 = experiment: Antiproliferative activity against human HOP-92 cells measured after 48 hrs by SRB assay; assay type: functional, cell-based
NCI-H226 = experiment: Antiproliferative activity against human NCI-H226 cells measured after 48 hrs by SRB assay; assay type: functional, cell-based
NCI-H23 = experiment: Antiproliferative activity against human NCI-H23 cells measured after 48 hrs by SRB assay; assay type: functional, cell-based
NCI-H522 = experiment: Antiproliferative activity against human NCI-H522 cells measured after 48 hrs by SRB assay; assay type: functional, cell-based
HCC 2998 = experiment: Antiproliferative activity against human HCC 2998 cells measured after 48 hrs by SRB assay; assay type: functional, cell-based
HCT-116 = experiment: Antiproliferative activity against human HCT-116 cells measured after 48 hrs by SRB assay; assay type: functional, cell-based
HCT-15 = experiment: Antiproliferative activity against human HCT-15 cells measured after 48 hrs by SRB assay; assay type: functional, cell-based
HT-29 = experiment: Antiproliferative activity against human HT-29 cells measured after 48 hrs by SRB assay; assay type: functional, cell-based
KM12 = experiment: Antiproliferative activity against human KM12 cells measured after 48 hrs by SRB assay; assay type: functional, cell-based
SW-620 = experiment: Antiproliferative activity against human SW-620 cells measured after 48 hrs by SRB assay; assay type: functional, cell-based
SF-268 = experiment: Antiproliferative activity against human SF-268 cells measured after 48 hrs by SRB assay; assay type: functional, cell-based
SF-539 = experiment: Antiproliferative activity against human SF-539 cells measured after 48 hrs by SRB assay; assay type: functional, cell-based
SNB-75 = experiment: Antiproliferative activity against human SNB-75 cells measured after 48 hrs by SRB assay; assay type: functional, cell-based
Malme-3M = experiment: Antiproliferative activity against human Malme-3M cells measured after 48 hrs by SRB assay; assay type: functional, cell-based
SK-MEL-2 = experiment: Antiproliferative activity against human SK-MEL-2 cells measured after 48 hrs by SRB assay; assay type: functional, cell-based
SK-MEL-28 = experiment: Antiproliferative activity against human SK-MEL-28 cells measured after 48 hrs by SRB assay; assay type: functional, cell-based
UACC-62 = experiment: Antiproliferative activity against human UACC-62 cells measured after 48 hrs by SRB assay; assay type: functional, cell-based
OVCAR-3 = experiment: Antiproliferative activity against human OVCAR-3 cells measured after 48 hrs by SRB assay; assay type: functional, cell-based
OVCAR-4 = experiment: Antiproliferative activity against human OVCAR-4 cells measured after 48 hrs by SRB assay; assay type: functional, cell-based
OVCAR-5 = experiment: Antiproliferative activity against human OVCAR-5 cells measured after 48 hrs by SRB assay; assay type: functional, cell-based
OVCAR-8 = experiment: Antiproliferative activity against human OVCAR-8 cells measured after 48 hrs by SRB assay; assay type: functional, cell-based
NCI/ADR-RES = experiment: Antiproliferative activity against human NCI-ADR-RES cells measured after 48 hrs by SRB assay; assay type: functional, cell-based
A498 = experiment: Antiproliferative activity against human A498 cells measured after 48 hrs by SRB assay; assay type: functional, cell-based
ACHN = experiment: Antiproliferative activity against human ACHN cells measured after 48 hrs by SRB assay; assay type: functional, cell-based
RXF 393 = experiment: Antiproliferative activity against human RXF 393 cells measured after 48 hrs by SRB assay; assay type: functional, cell-based
SN12C = experiment: Antiproliferative activity against human SN12C cells measured after 48 hrs by SRB assay; assay type: functional, cell-based
UO-31 = experiment: Antiproliferative activity against human UO-31 cells measured after 48 hrs by SRB assay; assay type: functional, cell-based
PC-3 = experiment: Antiproliferative activity against human PC-3 cells measured after 48 hrs by SRB assay; assay type: functional, cell-based
DU-145 = experiment: Antiproliferative activity against human DU-145 cells measured after 48 hrs by SRB assay; assay type: functional, cell-based
MDA-MB-468 = experiment: Antiproliferative activity against human MDA-MB-468 cells measured after 48 hrs by SRB assay; assay type: functional, cell-based
WI-38 = experiment: Antiproliferative activity against human WI-38 cells measured by MTT assay; assay type: functional, cell-based
[1] = molecular target: Mitogen-activated protein kinase 10 (Homo sapiens, UniProt P53779); experiment: Inhibition of JNK3 (unknown origin) at 1 uM relative to control
Mitogen-activated protein kinase 10, sequence (P53779 whole entry): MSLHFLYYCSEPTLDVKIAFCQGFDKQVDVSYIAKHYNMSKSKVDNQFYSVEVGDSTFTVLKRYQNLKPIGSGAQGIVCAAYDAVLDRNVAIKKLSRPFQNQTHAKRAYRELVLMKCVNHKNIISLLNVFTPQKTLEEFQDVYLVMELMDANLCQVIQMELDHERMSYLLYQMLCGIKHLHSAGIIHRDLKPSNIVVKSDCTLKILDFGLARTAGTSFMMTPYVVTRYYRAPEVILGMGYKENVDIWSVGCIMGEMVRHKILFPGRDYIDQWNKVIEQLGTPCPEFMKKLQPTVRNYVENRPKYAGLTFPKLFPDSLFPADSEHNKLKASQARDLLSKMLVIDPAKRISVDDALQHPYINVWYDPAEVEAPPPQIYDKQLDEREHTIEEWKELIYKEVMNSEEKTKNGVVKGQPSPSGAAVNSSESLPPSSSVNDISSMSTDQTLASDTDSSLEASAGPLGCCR

O=C(NCCCNc1cc(-c2cn(-c3ccccc3)nc2-c2cccc(O)c2)ccn1)Nc1ccc(F)cc1
pIC50 (CCRF-CEM; 48 h): 5.85 | TGI (CCRF-CEM; time 48 hrs): > 25 µM | pIC50 (K562; K562, 48 h): 6.09 | TGI (K562; K562, time 48 hrs): > 14.2 µM | pIC50 (MOLT-4; MOLT-4, 48 h): 5.90 | TGI (MOLT-4; MOLT-4, time 48 hrs): 15.6 µM | pIC50 (RPMI-8226; RPMI-8226, 48 h): 6.06 | TGI (RPMI-8226; RPMI-8226, time 48 hrs): 5.47 µM | pIC50 (SR; 48 h): 5.82 | TGI (SR; time 48 hrs): 13.8 µM | pIC50 (A549; A549, 48 h): 5.51 | TGI (A549; A549, time 48 hrs): > 21.7 µM | pIC50 (HOP-62; HOP-62, 48 h): 5.49 | TGI (HOP-62; HOP-62, time 48 hrs): 9.26 µM | pIC50 (HOP-92; HOP-92, 48 h): 6.07 | TGI (HOP-92; HOP-92, time 48 hrs): 4.97 µM | pIC50 (NCI-H226; NCI-H226, 48 h): 5.47 | TGI (NCI-H226; NCI-H226, time 48 hrs): 8.91 µM | pIC50 (NCI-H23; NCI-H23, 48 h): 5.51 | TGI (NCI-H23; NCI-H23, time 48 hrs): 7.65 µM | pIC50 (NCI-H522; NCI-H522, 48 h): 5.39 | TGI (NCI-H522; NCI-H522, time 48 hrs): 9.49 µM | pIC50 (HCC 2998; HCC 2998, 48 h): 5.96 | TGI (HCC 2998; HCC 2998, time 48 hrs): 4.05 µM | pIC50 (HCT-116; HCT-116, 48 h): 5.79 | TGI (HCT-116; HCT-116, time 48 hrs): 5.82 µM | pIC50 (HCT-15; HCT-15, 48 h): 6.03 | TGI (HCT-15; HCT-15, time 48 hrs): 4.04 µM | pIC50 (HT-29; HT-29, 48 h): 5.96 | TGI (HT-29; HT-29, time 48 hrs): 4.99 µM | pIC50 (KM12; KM12, 48 h): 5.58 | TGI (KM12; KM12, time 48 hrs): 5.79 µM | pIC50 (SW-620; SW-620, 48 h): 5.52 | TGI (SW-620; SW-620, time 48 hrs): 6.73 µM | pIC50 (SF-268; SF-268, 48 h): 5.58 | TGI (SF-268; SF-268, time 48 hrs): 11.2 µM | pIC50 (SF-539; SF-539, 48 h): 5.70 | TGI (SF-539; SF-539, time 48 hrs): 5.38 µM | pIC50 (SNB-75; SNB-75, 48 h): 6.27 | TGI (SNB-75; SNB-75, time 48 hrs): 3.18 µM | pIC50 (Malme-3M; 48 h): 6.08 | TGI (Malme-3M; time 48 hrs): 3.42 µM | pIC50 (SK-MEL-2; SK-MEL-2, 48 h): 5.40 | TGI (SK-MEL-2; SK-MEL-2, time 48 hrs): 10.1 µM | pIC50 (SK-MEL-28; SK-MEL-28, 48 h): 5.60 | TGI (SK-MEL-28; SK-MEL-28, time 48 hrs): 5.64 µM | pIC50 (UACC-62; UACC-62, 48 h): 5.50 | TGI (UACC-62; UACC-62, time 48 hrs): 6.6 µM | pIC50 (OVCAR-3; OVCAR-3, 48 h): 5.67 | TGI (OVCAR-3; OVCAR-3, time 48 hrs): 8.69 µM | pIC50 (OVCAR-4; OVCAR-4, 48 h): 5.84 | TGI (OVCAR-4; OVCAR-4, time 48 hrs): 8.21 µM | pIC50 (OVCAR-5; OVCAR-5, 48 h): 5.47 | TGI (OVCAR-5; OVCAR-5, time 48 hrs): 9.12 µM | pIC50 (OVCAR-8; OVCAR-8, 48 h): 5.67 | TGI (OVCAR-8; OVCAR-8, time 48 hrs): 9.26 µM | pIC50 (NCI/ADR-RES; 48 h): 5.45 | TGI (NCI/ADR-RES; time 48 hrs): 12.5 µM | pIC50 (A498; A498, 48 h): 5.92 | TGI (A498; A498, time 48 hrs): 4.96 µM | pIC50 (ACHN; 48 h): 5.50 | TGI (ACHN; time 48 hrs): 14.2 µM | pIC50 (RXF 393; RXF 393, 48 h): 6.01 | TGI (RXF 393; RXF 393, time 48 hrs): 4.85 µM | pIC50 (SN12C; 48 h): 5.55 | TGI (SN12C; time 48 hrs): 8.37 µM | pIC50 (UO-31; UO-31, 48 h): 5.80 | TGI (UO-31; UO-31, time 48 hrs): 9.7 µM | pIC50 (PC-3; PC-3, 48 h): 5.88 | TGI (PC-3; PC-3, time 48 hrs): 8.92 µM | pIC50 (DU-145; DU-145, 48 h): 5.37 | TGI (DU-145; DU-145, time 48 hrs): 19.3 µM | pIC50 (MDA-MB-468; MDA-MB-468, 48 h): 5.93 | TGI (MDA-MB-468; MDA-MB-468, time 48 hrs): 4.66 µM | pIC50 (WI-38): 4.77 | inhibition [1]: 94%
